How the values were obtained:
Test in all cases: relative viability (nuclei count vs DMSO), 5 days (fraction); higher = more cells survive
[1] = compound: CCn1c(-c2nonc2N)nc2c(C#CC(C)(C)O)ncc(OC[C@H]3CCCNC3)c21 + C[C@]1(O)C[C@@H](c2nc(-c3ccc4ccc(-c5ccccc5)nc4c3)c3c(N)nccn32)C1 [Linsitinib] (partner 1 µM)
Procedure, shortened: (§1)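 Relative viability divides the nuclei count in treated wells by that in vehicle wells. Lung cancer cell lines were seeded in 1536-well plates, dosed by pin tool the next day, and fixed and stained after 5 days in one step with final 0.05% Triton X-100, 1% formaldehyde and 1 ug/ml Hoechst. Dosing was a single drug or a fixed anchor-drug dose plus five library-drug doses (not always all listed) in √10 steps, and values are medians of duplicate plates imaged at 4×.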

BAM7 + Vorinostat = compound: CCOC1=CC=CC=C1N=NC2=C(NN(C2=O)C3=NC(=CS3)C4=CC=CC=C4)C [BAM7] + O=C(CCCCCCC(=O)Nc1ccccc1)NO [Vorinostat] (partner 1 µM)
Procedure, shortened: as §1

[2] = compound: CCn1c(-c2nonc2N)nc2c(C#CC(C)(C)O)ncc(OC[C@H]3CCCNC3)c21 + CC1(C)CCC(c2ccc(Cl)cc2)=C(CN2CCN(c3ccc(C(=O)NS(=O)(=O)c4ccc(N[C@H](CCN5CCOCC5)CSc5ccccc5)c(S(=O)(=O)C(F)(F)F)c4)cc3)CC2)C1 [Navitoclax] (partner 0.5 µM)
Procedure, shortened: as §1

BAM7 + OSI-027 = compound: CCOC1=CC=CC=C1N=NC2=C(NN(C2=O)C3=NC(=CS3)C4=CC=CC=C4)C [BAM7] + COc1cccc2cc(-c3nc([C@H]4CC[C@H](C(=O)O)CC4)n4ncnc(N)c34)[nH]c12 [OSI-027] (partner 0.5 µM)
Procedure, shortened: as §1

With SW 1573 the relative viability ([1]; first compound 0.01 µM) was 0.827, the relative viability ([1]; first compound 0.03162 µM) was 0.793 and the relative viability ([1]; first compound 0.1 µM) was 0.81. It also gave a relative viability ([1]; first compound 0.3162 µM) of 0.7, a relative viability ([1]; first compound 1 µM) of 0.772 and a relative viability (BAM7 + Vorinostat; first compound 0.5 µM) of 0.715. It also gave a relative viability (BAM7 + Vorinostat; first compound 5 µM) of 0.735, a relative viability (BAM7 + Vorinostat; first compound 15.81 µM) of 1.06 and a relative viability (BAM7 + Vorinostat; first compound 50 µM) of 0.606. The relative viability ([2]; first compound 0.01 µM) was 0.895, the relative viability ([2]; first compound 0.03162 µM) was 0.859 and the relative viability ([2]; first compound 0.1 µM) was 0.934. It also gave a relative viability ([2]; first compound 0.3162 µM) of 0.943, a relative viability ([2]; first compound 1 µM) of 0.735 and a relative viability (BAM7 + OSI-027; first compound 0.5 µM) of 0.753. For the same cell line, the relative viability (BAM7 + OSI-027; first compound 5 µM) was 0.708, the relative viability (BAM7 + OSI-027; first compound 15.81 µM) was 0.591 and the relative viability (BAM7 + OSI-027; first compound 50 µM) was 0.711.
